What was measured:
Type in all cases: biochemical
gelatinase A = target: T1, gelatinase A (Homo sapiens, UniProt P08253); test: Inhibitory activity against gelatinase A (fluorogenic synthetic substrate); conditions: gelatinase A from progelatinase A purified from human normal skin dermal fibroblasts (HNDF), APMA-activated; 37° C.
T1 construct: endogenous in cells; host or cells: human normal skin dermal fibroblasts (HNDF)
T1 sequence (P08253 110-660): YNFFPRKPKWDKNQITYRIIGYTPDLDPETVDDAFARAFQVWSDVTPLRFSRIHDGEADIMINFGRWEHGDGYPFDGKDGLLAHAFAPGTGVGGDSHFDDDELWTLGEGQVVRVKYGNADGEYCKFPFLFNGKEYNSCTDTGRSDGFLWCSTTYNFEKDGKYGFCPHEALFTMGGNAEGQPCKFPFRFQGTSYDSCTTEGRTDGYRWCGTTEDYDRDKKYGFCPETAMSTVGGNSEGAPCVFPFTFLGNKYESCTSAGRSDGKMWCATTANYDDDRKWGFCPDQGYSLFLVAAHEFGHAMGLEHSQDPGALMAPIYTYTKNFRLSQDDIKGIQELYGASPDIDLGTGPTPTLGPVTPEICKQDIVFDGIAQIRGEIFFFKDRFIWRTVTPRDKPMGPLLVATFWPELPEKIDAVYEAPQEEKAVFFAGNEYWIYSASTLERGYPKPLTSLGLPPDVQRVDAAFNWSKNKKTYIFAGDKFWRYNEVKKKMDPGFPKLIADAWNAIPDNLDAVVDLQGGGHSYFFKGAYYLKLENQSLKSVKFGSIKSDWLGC
Description: (1) Inhibitory Activity Against Gelatinase A
The progelatinase A (5 μl; in assay buffer (40 μl)) was purified from human normal skin dermal fibroblasts (HNDF). It was activated by adding thereto 10 mM of p-aminophenylmercuric acetate (APMA) (5 μl) and preincubating for 1 hour at 37° C.
A mixture of the synthetic substrate (MOCAc-Pro-Leu-Gly-A2pr(Dnp)-Ala-Arg-NH2) (130 μl; a final concentration 13.5 μM) and a solution (20 μl) with or without various concentrations of the test compound was preincubated for 5 minutes at 37° C.
The solution of activated gelatinase A (50 μl/well) was mixed with the mixture and the mixture was incubated for 15 minutes at 37° C. The enzyme reaction was started. The enzyme activity was represented by increasing value of fluorescent intensity [Ex=325 nm (Ex)/393 nm (Em)] per 1 minute. Inhibitory activity was represented by inhibitory percentage (%) per enzyme activity without the test compound.

collagenase = target: T2, collagenase (Homo sapiens, UniProt P03956); test: Inhibitory activity against collagenase (thiopeptolide synthetic substrate, absorption at 324 nm); conditions: collagenase from procollagenase purified from human normal skin dermal fibroblasts (HNDF), trypsin-activated; 26° C.
T2 construct: endogenous in cells; host or cells: human normal skin dermal fibroblasts (HNDF)
T2 sequence (P03956 100-469): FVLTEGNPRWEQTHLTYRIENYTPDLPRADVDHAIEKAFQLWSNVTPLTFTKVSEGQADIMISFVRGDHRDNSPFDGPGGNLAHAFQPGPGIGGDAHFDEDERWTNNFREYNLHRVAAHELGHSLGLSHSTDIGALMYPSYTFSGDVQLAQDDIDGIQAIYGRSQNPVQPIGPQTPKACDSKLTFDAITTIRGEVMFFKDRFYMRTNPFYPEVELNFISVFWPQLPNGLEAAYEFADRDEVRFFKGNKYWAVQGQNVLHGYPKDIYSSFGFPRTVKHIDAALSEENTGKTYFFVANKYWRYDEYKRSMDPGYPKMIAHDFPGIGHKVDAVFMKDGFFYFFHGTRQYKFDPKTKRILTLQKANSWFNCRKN
Description: (2) Inhibitory Activity Against Collagenase Method:
The procollagenase (5 μl; in assay buffer (105 μl)) was purified from human normal skin dermal fibroblasts (HNDF). It was activated by adding thereto 1 mg/ml Trypsin (45 μl) and preincubating for 1 minute at 37° C. Trypsin was inactivated by addition of 5 mg/ml soybean trypsin inhibitor (SBTI; 50 μl).
A mixture of the synthetic substrate (Ac-Pro-Leu-Gly-[2-mercapto-4-methyl-pentanoyl]-Leu-Gly-OEt) (105 μl; a final concentration 1.33 mM) and a solution (20 μl) with or without various concentrations of the test compound was preincubated for 5 minutes at 26° C.
The solution of activated enzyme (75 μl /tube, 50 μl) was mixed with the mixture and the mixture was incubated for 10 minutes at 26° C.
Absorption at 324 nm was measured 40 points in the course of 10 minutes. Vmax value was determined as measured value in 30 points therein.

human stromelysin = target: T3, human stromelysin (Homo sapiens, UniProt P08254); test: Inhibitory activity against stromelysin (synthetic substrate NFF-3, fluorescence); conditions: APMA-activated, pH 7.5, 37° C.
T3 construct: purchased Yagai
T3 sequence (P08254 100-477): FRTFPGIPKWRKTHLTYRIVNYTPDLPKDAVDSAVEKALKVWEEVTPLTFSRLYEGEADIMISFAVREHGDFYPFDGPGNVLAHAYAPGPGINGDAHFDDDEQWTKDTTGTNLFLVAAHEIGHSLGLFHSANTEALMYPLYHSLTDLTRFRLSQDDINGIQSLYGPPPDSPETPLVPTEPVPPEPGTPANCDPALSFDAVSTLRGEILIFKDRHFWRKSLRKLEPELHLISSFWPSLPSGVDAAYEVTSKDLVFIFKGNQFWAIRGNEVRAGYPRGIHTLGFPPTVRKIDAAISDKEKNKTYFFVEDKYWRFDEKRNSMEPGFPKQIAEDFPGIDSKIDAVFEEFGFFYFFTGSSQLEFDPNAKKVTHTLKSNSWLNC
Description: (3) Inhibitory Activity Against Stromelysin Method:
The mixture of human stromelysin (Yagai; 9 volume) and 10 mM p-aminophenylmercury acetate (1 volume) was activated for 20 hours at 37° C. A solution of the test compound in dimethylsulfoxide (10 μl) and 0.5 mM solution (10 μl) of 10 mM solution of the synthetic substrate NFF-3 (Mca-Arg-Pro-Lys-Pro-Val-Glu-Nva-Trp-Arg-Lys(DNP)-NH2., Nva: norvaline, Peptide Laboratory) in dimethylsulfoxide diluted by water were added to assay buffer (50 mM tris-HCl, 10 mM CaCl2, 0.05% Brij35, 0.02% NaN3 (pH 7.5)) (150 μl). Furthermore, assay buffer (30 μl) was added to the mixture. The mixture was incubated for 10 minutes at 37° C. The reaction was started by addition of a solution of the above activated stromelysin solution (50 μl). The enzyme activity was represented by increasing value of fluorescent intensity [Ex=325 nm (Ex)/393 nm (Em)] per 1 minute. Inhibitory activity was represented by inhibitory percentage (%) per enzyme activity without the test compound.

| IC50 (gelatinase A) [nM] | IC50 (collagenase) [nM] | IC50 (human stromelysin) [nM] | Compound |
| --- | --- | --- | --- |
| – | – | 40 | CCOCOC[C@H](C[C@H](COC)C(=O)NO)NC(=O)c1ccc(-c2ccco2)cc1 [8(7), N-hydroxy-5-ethoxymethoxy-2(R)-methoxymethyl-4(S)-[N-(4-(2-furyl)phenylcarbonyl)amino]pentanamide] |
| – | 14 | – | CCOCOC[C@H](C[C@H](COC)C(=O)NO)NC(=O)c1ccc(C#N)cc1 [compound 8] |

Second part, the compound before the results:

| Compound | IC50 (gelatinase A) [nM] | IC50 (collagenase) [nM] | IC50 (human stromelysin) [nM] |
| --- | --- | --- | --- |
| CN(C(=O)c1ccc(Br)cc1)[C@H](CO)C[C@H](CCCc1ccccc1)C(=O)NO [16(2), N-hydroxy-2(S)-(3-phenylpropyl)-5-hydroxy-4(S)-[N-methyl-N-(4-bromophenylcarbonyl)amino]pentanamide] | 4.2 | – | – |
| C#CC[C@@H](C[C@@H](CO)N(C)C(=O)c1ccc(Br)cc1)C(=O)NO [21(2), N-hydroxy-2(S)-(2-propynyl)-5-hydroxy-4(S)-[N-methyl-N-(4-bromophenylcarbonyl)amino]pentanamide] | – | 7.6 | – |
| CCOCOC[C@H](C[C@H](COC)C(=O)NO)NC(=O)c1ccc(Oc2ccccc2)cc1 [8(6), N-hydroxy-5-ethoxymethoxy-2(R)-methoxymethyl-4(S)-[N-(4-phenoxyphenylcarbonyl)amino]pentanamide] | 1.7 | – | 29 |
| C#CCOC[C@@H](C[C@@H](COCOCC)NC(=O)c1ccc(Cl)cc1)C(=O)NO [20(3), N-hydroxy-5-ethoxymethoxy-2(R)-(2-propynyloxymethyl)-4(S)-[N-(4-chlorophenylcarbonyl)amino]pentanamide] | – | 6.8 | – |

Source: patent US6924307B2, “Aminobutyric acid derivatives and pharmaceutical composition containing the same as active ingredient” (Ono Pharmaceutical Co., Ltd., priority 1999, dated 2005)
